Laboratory results from PMC9839475 (Journal of acquired immune deficiency syndromes (1999), 2023).
Read-outs that look alike come from different tables or passages of the source. Values belong to the compound of their own block, whether it stands above or below them.

Tests used:
[1] = adults taking 200mg daily; upper PK target of Cohort 1; cited from earlier work
[2] = Cohort 1 safety through week 2; format: in vivo, adolescents with HIV-1
HIV-1 = conditions: cited from earlier work
[3] = Cohort 1 intensive PK after a single 100 mg doravirine tablet; set-up: species or system adolescents with HIV-1; conditions: in vivo, po
[4] = Cohort 2 week 1 intensive PK, DOR FDC once daily; format: in vivo, adolescents with HIV-1; conditions: for time at which Cmax occurred: Cohort 2, week 1, oral DOR/3TC/TDF, intensive PK
[5] = Cohort 2 sparse PK weeks 4-24, DOR FDC once daily; format: in vivo, adolescents with HIV-1
CYP3A = conditions: cited from earlier work
[6] = set-up: species or system adolescents with HIV-1; conditions: in vivo
[7] = in vivo

Compound: Cn1c(Cn2ccc(C(F)(F)F)c(Oc3cc(Cl)cc(C#N)c3)c2=O)n[nH]c1=O [Doravirine]
geometric AUC0–24hr at steady-state [1]: 64 µM·h | participants who died due to adverse event ([2]; Cohort 1, N=9, 100mg single dose, through week 2): 0 (0) n (%) | Grade 3 or 4 adverse events ([2]; human, in vivo, 2 weeks): no Grade 3 or 4 adverse events | participants with at least one Grade 1 or Grade 2 adverse event ([2]; human, in vivo, 2 weeks): 44.4% | tolerability ([2]; in vivo): well tolerated | lipid levels compared to darunavir/ritonavir (HIV-1): significantly improved lipid levels | discontinuations due to adverse events (HIV-1; week 48, doravirine plus 2 NRTIs, adults naïve to antiretroviral therapy): < 1% | virologic response versus darunavir/ritonavir (HIV-1; week 48, plus 2 NRTIs): not inferior | AUC(0-inf) ([3]; human): 34.8 µM·h | Tmax, median (range) ([3]; human): 3.78 (1.00–7.75) h | Vd/F ([3]; human): 115 L | half-life ([3]; human): 11.8 h | Tmax ([3]; human, Tmax, median (range)): ~4 h | Cl/F, geometric mean (geometric CV%) [3]: 6.75 (43) L/h | Cl/F, geometric mean (geometric CV%) ([4]; Cohort 2, week 1, 100 mg daily as DOR FDC, n=10): 10.3 (47) L/h | C24,ss observed, geometric mean (geometric CV%) ([4]; Cohort 2, week 1, 100 mg daily as DOR FDC, n=10, 8/10 switched from efavirenz): 282 (74) nM | Tmax ([4]; human, plasma, oral): ~2 h | Cmax ([4]; human, plasma, po, 100 mg): 2130 nM | Tmax ([4]; human, plasma, po, 100 mg): 1.95 h | geometric mean steady state doravirine concentrations ([5]; Cohort 2, all participants, Week 4 through Week 24): > 560 nM | DOR plasma concentration, geometric mean ([5]; Cohort 2, week 4, predose, N=45, DOR/3TC/TDF once daily): 747 nM | DOR plasma concentration, geometric mean ([5]; Cohort 2, week 8, random time, N=44, DOR/3TC/TDF once daily): 1320 nM | DOR plasma concentration, geometric mean ([5]; Cohort 2, week 12, random time, N=44, DOR/3TC/TDF once daily): 2020 nM | DOR plasma concentration, geometric mean ([5]; Cohort 2, week 24, 0.5–2 hours post dose, N=43, DOR/3TC/TDF once daily): 1870 nM | DOR plasma concentration, geometric mean ([5]; Cohort 2, week 24, predose, N=43, DOR/3TC/TDF once daily): 1090 nM

Compound: O=C1Nc2ccc(Cl)cc2[C@@](C#CC2CC2)(C(F)(F)F)O1 [efavirenz]
CYP3A induction (CYP3A): moderate CYP3A inducer

Compound: doravirine/lamivudine/tenofovir disoproxil fumarate [DOR FDC]
Alanine Aminotransferase, mean change [95% CI] [6]: 1.2 [−7.3, 9.6] IU/L | Alkaline Phosphatase, mean change [95% CI] [6]: −20.7 [−35.1, −6.3] IU/L | Aspartate Aminotransferase, mean change [95% CI] [6]: 0.8 [−5.1, 6.7] IU/L | Bilirubin, mean change [95% CI] [6]: −0.0 [−0.2, 0.1] mg/dL | Creatinine, mean change [95% CI] [6]: 0.0 [0.0, 0.1] mg/dL | HDL Cholesterol, mean change [95% CI] [6]: −11.3 [−15.9, −6.6] mg/dL | LDL Cholesterol, mean change [95% CI] [6]: −12.5 [−20.7, −4.2] mg/dL | eGFR from Creatinine Adjusted for BSA, mean change [95% CI] [6]: −6.5 [−15.2, 2.2] mL/min/1.73m^2 | grade 3 diarrhea and gastroenteritis [7]: one participant | grade 3 increased ALT [7]: one participant | participants meeting safety endpoint eGFR <60 ml/min/1.73m^2 [7]: No participant | participants who experienced at least one adverse event [7]: 45 participants | participants with Grade 1 dizziness assessed as related to the study drug [7]: 2.2% | participants with concomitant grade 3 increased creatinine [7]: 2 | participants with grade 3 decreased eGFR [7]: Three participants | participants with no adverse events [7]: 0 (0) n (%) | participants with one or more Grade 3 or greater adverse events [7]: 9 (20.0) n (%) | participants with one or more Grade 3 or greater drug-related adverse events [7]: 0 (0) n (%) | participants with one or more adverse events [7]: 45 (100.0) n (%) | participants with one or more drug-related adverse events [7]: 1 (2.2) n (%) | participants with one or more grade 3 adverse events [7]: 20% | participants with one or more serious adverse events [7]: 1 (2.2) n (%) | participants with one or more serious drug-related adverse events [7]: 0 (0) n (%) | tolerability [7]: well tolerated

Further lines, results first:

time at which Cmax occurred [4]: ~2 h
Compound: Nc1ccn([C@@H]2CS[C@H](CO)O2)c(=O)n1 [lamivudine]

time at which Cmax occurred [4]: approximately 1 hour
Compound: C[C@H](Cn1cnc2c(N)ncnc21)OCP(=O)(O)O [tenofovir]
